Experimental data taken from the supplement of paper PMC11061612.

Tests used:
Venetoclax = compound: CC1(C)CCC(CN2CCN(c3ccc(C(=O)NS(=O)(=O)c4ccc(NCC5CCOCC5)c([N+](=O)[O-])c4)c(Oc4cnc5[nH]ccc5c4)c3)CC2)=C(c2ccc(Cl)cc2)C1 [Venetoclax]; settings: max 1 µM
Summary of the method: (§1)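 Cancer cell lines were seeded into 1536-well plates in 7.5 μl medium (DMEM/F12 or RPMI, 10% FBS), held 24 hours at 37°C and 5% CO2, and dosed for 72 hours with final DMSO typically 0.2%. Luminescence from CellTiter-Glo 2.0, scaled between blank-well and DMSO-well means, served as viability. The single-agent IC50 was obtained from dose-response fits with a non-linear mixed effects model, each fit being a two-parameter logistic curve.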

AZD6738 = compound: C[C@@H]1COCCN1C2=NC(=NC(=C2)C3(CC3)[S@](=N)(=O)C)C4=C5C=CNC5=NC=C4 [AZD6738]; settings: max 10 µM
Summary of the method: as §1

AZD1775 = compound: C=CCn1c(=O)c2cnc(Nc3ccc(N4CCN(C)CC4)cc3)nc2n1-c1cccc(C(C)(C)O)n1 [AZD1775]; settings: max 3 µM
Summary of the method: as §1

SG3199 = compound: CC1=CN2[C@@H](C1)C=NC3=CC(=C(C=C3C2=O)OC)OCCCCCOC4=C(C=C5C(=C4)N=C[C@@H]6CC(=CN6C5=O)C)OC [SG3199]; settings: max 0.001 µM
Summary of the method: as §1

Palbociclib = compound: CC(=O)c1c(C)c2cnc(Nc3ccc(N4CCNCC4)cn3)nc2n(C2CCCC2)c1=O [Palbociclib]; settings: max 10 µM
Summary of the method: as §1

AZD0156 = compound: CN(C)CCCOc1ccc(-c2ccc3ncc4c(c3c2)n(C2CCOCC2)c(=O)n4C)cn1 [AZD0156]; settings: max 3 µM
Summary of the method: as §1

MK-2206 = compound: NC1(c2ccc(-c3nc4ccn5c(=O)[nH]nc5c4cc3-c3ccccc3)cc2)CCC1 [MK-2206]; settings: max 10 µM
Summary of the method: as §1

Crizotinib = compound: C[C@@H](Oc1cc(-c2cnn(C3CCNCC3)c2)cnc1N)c1c(Cl)ccc(F)c1Cl [Crizotinib]; settings: max 10 µM
Summary of the method: as §1

SN-38 = compound: CCc1c2c(nc3ccc(O)cc13)-c1cc3c(c(=O)n1C2)COC(=O)[C@]3(O)CC [SN-38]; settings: max 0.3 µM
Summary of the method: as §1

AZD5153 = compound: COc1nnc2ccc(N3CCC(c4ccc(OCCN5CCN(C)C(=O)[C@H]5C)cc4)CC3)nn12 [AZD5153]; settings: max 1 µM
Summary of the method: as §1

Lapatinib = compound: CS(=O)(=O)CCNCc1ccc(-c2ccc3ncnc(Nc4ccc(OCc5cccc(F)c5)c(Cl)c4)c3c2)o1 [Lapatinib]; settings: max 10 µM
Summary of the method: as §1

Olaparib = compound: O=C(c1cc(Cc2n[nH]c(=O)c3ccccc23)ccc1F)N1CCN(C(=O)C2CC2)CC1 [Olaparib]; settings: max 10 µM
Summary of the method: as §1

Trametinib = compound: CC(=O)Nc1cccc(-n2c(=O)n(C3CC3)c(=O)c3c(Nc4ccc(I)cc4F)n(C)c(=O)c(C)c32)c1 [Trametinib]; settings: max 1 µM
Summary of the method: as §1

Savolitinib = compound: C[C@@H](c1ccc2nccn2c1)n1nnc2ncc(-c3cnn(C)c3)nc21 [Savolitinib]; settings: max 1 µM
Summary of the method: as §1

AZD1390 = compound: CC(C)n1c(=O)n(C)c2cnc3cc(F)c(-c4ccc(OCCCN5CCCCC5)nc4)cc3c21 [AZD1390]; settings: max 0.3 µM
Summary of the method: as §1

AZD4320 = compound: CN(CC[C@H](CSC1=CC=CC=C1)NC2=C(C=C(C=C2)S(=O)(=O)NC(=O)C3=CC=C(C=C3)N4CCC(CC4)[C@H](C5=CC=CC=C5C6=CC=C(C=C6)Cl)O)S(=O)(=O)C(F)(F)F)CCO [AZD4320]; settings: max 1 µM
Summary of the method: as §1

AZD8186 = compound: C[C@@H](Nc1cc(F)cc(F)c1)c1cc(C(=O)N(C)C)cc2c(=O)cc(N3CCOCC3)oc12 [AZD8186]; settings: max 3 µM
Summary of the method: as §1

Capivasertib = compound: C1CN(CCC1(C(=O)N[C@@H](CCO)C2=CC=C(C=C2)Cl)N)C3=NC=NC4=C3C=CN4 [Capivasertib]; settings: max 10 µM
Summary of the method: as §1

AZD7648 = compound: Cc1cc2ncnn2cc1Nc1ncc2c(n1)n(C1CCOCC1)c(=O)n2C [AZD7648]; settings: max 10 µM
Summary of the method: as §1

Taselisib = compound: Cc1nc(-c2cn3c(n2)-c2ccc(-c4cnn(C(C)(C)C(N)=O)c4)cc2OCC3)n(C(C)C)n1 [Taselisib]; settings: max 10 µM
Summary of the method: as §1

Alisertib = compound: COc1cc(Nc2ncc3c(n2)-c2ccc(Cl)cc2C(c2c(F)cccc2OC)=NC3)ccc1C(=O)O [Alisertib]; settings: max 10 µM
Summary of the method: as §1

Dasatinib = compound: CC1=C(C(=CC=C1)Cl)NC(=O)C2=CN=C(S2)NC3=CC(=NC(=N3)C)N4CCN(CC4)CCO [Dasatinib]; settings: max 2 µM
Summary of the method: as §1

Doxorubicin = compound: COc1cccc2c1C(=O)c1c(O)c3c(c(O)c1C2=O)C[C@@](O)(C(=O)CO)C[C@@H]3O[C@H]1C[C@H](N)[C@H](O)[C@H](C)O1 [Doxorubicin]; settings: max 1 µM
Summary of the method: as §1

Prexasertib = compound: COc1cccc(OCCCN)c1-c1cc(Nc2cnc(C#N)cn2)n[nH]1 [Prexasertib]; settings: max 1 µM
Summary of the method: as §1

Selumetinib = compound: Cn1cnc2c(F)c(Nc3ccc(Br)cc3Cl)c(C(=O)NOCCO)cc21 [Selumetinib]; settings: max 10 µM
Summary of the method: as §1

AZD2811 = compound: CCN(CCO)CCCOc1ccc2c(Nc3cc(CC(=O)Nc4cccc(F)c4)[nH]n3)ncnc2c1 [AZD2811]; settings: max 1 µM
Summary of the method: as §1

AZD5991 = compound: Cc1c2c(nn1C)CSCc1cc(n(C)n1)CSc1cc(c3ccccc3c1)OCCCc1c(C(=O)O)n(C)c3c-2c(Cl)ccc13 [AZD5991]; settings: max 1 µM
Summary of the method: as §1

Gefitinib = compound: COc1cc2ncnc(Nc3ccc(F)c(Cl)c3)c2cc1OCCCN1CCOCC1 [Gefitinib]; settings: max 10 µM
Summary of the method: as §1

Cell Line	IC50, cell viability 72 h (Venetoclax)	IC50, cell viability 72 h (AZD6738)	IC50, cell viability 72 h (AZD1775)	IC50, cell viability 72 h (SG3199)	IC50, cell viability 72 h (Palbociclib)	IC50, cell viability 72 h (AZD0156)	IC50, cell viability 72 h (MK-2206)	IC50, cell viability 72 h (Crizotinib)	IC50, cell viability 72 h (SN-38)	IC50, cell viability 72 h (AZD5153)	IC50, cell viability 72 h (Lapatinib)	IC50, cell viability 72 h (Olaparib)	IC50, cell viability 72 h (Trametinib)	IC50, cell viability 72 h (Savolitinib)	IC50, cell viability 72 h (AZD1390)	IC50, cell viability 72 h (AZD4320)	IC50, cell viability 72 h (AZD8186)	IC50, cell viability 72 h (Capivasertib)	IC50, cell viability 72 h (AZD7648)	IC50, cell viability 72 h (Taselisib)	IC50, cell viability 72 h (Alisertib)	IC50, cell viability 72 h (Dasatinib)	IC50, cell viability 72 h (Doxorubicin)	IC50, cell viability 72 h (Prexasertib)	IC50, cell viability 72 h (Selumetinib)	IC50, cell viability 72 h (AZD2811)	IC50, cell viability 72 h (AZD5991)	IC50, cell viability 72 h (Gefitinib)
NCI-H747 (Colorectal Carcinoma)	> 1000 nM	> 10000 nM	2510 nM	> 1 nM	> 10000 nM	> 3000 nM	2200 nM	> 10000 nM	> 300 nM	101 nM	> 10000 nM	> 10000 nM	5.4 nM	> 1000 nM	> 300 nM	> 1000 nM	> 3000 nM	4660 nM	> 10000 nM	2380 nM	> 10000 nM	542 nM	> 1000 nM	> 1000 nM	309 nM	> 1000 nM	> 1000 nM	> 10000 nM
KYSE-410 (Esophageal Squamous Cell Carcinoma)	> 1000 nM	> 10000 nM	2210 nM	> 1 nM	> 10000 nM	> 3000 nM	–	> 10000 nM	> 300 nM	> 1000 nM	8740 nM	> 10000 nM	> 1000 nM	> 1000 nM	> 300 nM	> 1000 nM	> 3000 nM	> 10000 nM	> 10000 nM	2710 nM	> 10000 nM	1900 nM	> 1000 nM	952 nM	> 10000 nM	> 1000 nM	> 1000 nM	> 10000 nM
OVCAR-8 (Ovarian Carcinoma)	> 1000 nM	6140 nM	1370 nM	> 1 nM	> 10000 nM	> 3000 nM	–	> 10000 nM	18.7 nM	198 nM	> 10000 nM	> 10000 nM	> 1000 nM	> 1000 nM	> 300 nM	> 1000 nM	> 3000 nM	> 10000 nM	> 10000 nM	> 10000 nM	7630 nM	1540 nM	257 nM	13.4 nM	> 10000 nM	> 1000 nM	> 1000 nM	> 10000 nM
639-V (Bladder Carcinoma)	> 1000 nM	> 10000 nM	2210 nM	> 1 nM	> 10000 nM	> 3000 nM	–	> 10000 nM	3.66 nM	257 nM	> 10000 nM	> 10000 nM	> 1000 nM	> 1000 nM	> 300 nM	> 1000 nM	> 3000 nM	> 10000 nM	> 10000 nM	2460 nM	2980 nM	1380 nM	574 nM	948 nM	> 10000 nM	> 1000 nM	> 1000 nM	> 10000 nM
KARPAS-231 (B-Cell Non-Hodgkin's Lymphoma)	7 nM	6030 nM	123 nM	> 1 nM	> 10000 nM	> 3000 nM	–	> 10000 nM	1.68 nM	> 1000 nM	> 10000 nM	> 10000 nM	> 1000 nM	> 1000 nM	> 300 nM	21.2 nM	> 3000 nM	> 10000 nM	> 10000 nM	> 10000 nM	1020 nM	> 2000 nM	899 nM	12.5 nM	> 10000 nM	264 nM	31.4 nM	> 10000 nM
HCC-15 (Squamous Cell Lung Carcinoma)	> 1000 nM	> 10000 nM	1350 nM	> 1 nM	> 10000 nM	> 3000 nM	–	> 10000 nM	> 300 nM	> 1000 nM	> 10000 nM	> 10000 nM	164 nM	> 1000 nM	> 300 nM	216 nM	> 3000 nM	> 10000 nM	> 10000 nM	> 10000 nM	181 nM	> 2000 nM	> 1000 nM	> 1000 nM	4440 nM	657 nM	> 1000 nM	> 10000 nM
TE-4 (Esophageal Squamous Cell Carcinoma)	> 1000 nM	> 10000 nM	1020 nM	> 1 nM	> 10000 nM	> 3000 nM	–	> 10000 nM	> 300 nM	> 1000 nM	264 nM	> 10000 nM	125 nM	> 1000 nM	> 300 nM	> 1000 nM	> 3000 nM	2910 nM	> 10000 nM	381 nM	> 10000 nM	> 2000 nM	> 1000 nM	334 nM	> 10000 nM	> 1000 nM	> 1000 nM	990 nM
